Measured values as given in ChEMBL document CHEMBL1132516, “Further hypotensive metabolites from Verbesina caracasana” (1999).

How the values were obtained:
Rattus norvegicus [1] = assay: Percent change in systolic blood pressure (mmHg)in anesthetized rats by i.v. administration; type: functional, Artery
Rattus norvegicus [2] = assay: Percent change in heart rate expressed in beats / min in anesthetized rats by i.v. administration; type: functional
Rattus norvegicus [3] = assay: Percent change in tidal volume expressed in microL in anesthetized rats by i.v. administration; type: functional
Rattus norvegicus [4] = assay: Percent change in respiratory frequency (RF) expressed in beats / min in anesthetized rats by i.v. administration; type: functional
Rattus norvegicus [5] = assay: Percent change in diastolic blood pressure (mmHg)in anesthetized rats by i.v. administration; type: functional, Artery
Rattus norvegicus [6] = assay: Maximum rate of rise of the left ventricular isovolumetric pressure in anesthetized rats by i.v. administration; type: functional, Heart left ventricle
Rattus norvegicus [7] = assay: Maximum rate of rise of the left ventricular isovolumetric pressure (dP/dt, an index of cardiac inotropism in mmHg/sec)in anesthetized rats by i.v. administration; type: functional, Heart left ventricle

Row | SMILES | Change (Rattus norvegicus [1]) | Change (Rattus norvegicus [2]) | Change (Rattus norvegicus [3]) | Change (Rattus norvegicus [4]) | Change (Rattus norvegicus [5]) | Change (Rattus norvegicus [6]) | Change (Rattus norvegicus [7])
1 | COc1ccc(/C=C/C(=O)NCCCC/N=C(\N)NCC=C(C)C)cc1OC | -26% | 5% | 41% | 21% | -29% | 57% | 
2 | COc1ccc(/C=C/C(=O)NCCCCN=C(N)N)cc1OC | -8% | 0% | 12% | 4% | -8% | 11% | 
3 | CC(C)=CCNC(=N)NCCCCN | -11% | -4% | 11% | 4% | -17% | 23% | 
4 | NCCCCN=C(N)N [AGMATINE] | -8% | 0% | 14% | 12% | -10% | 16% | 
5 | Clc1cccc(Cl)c1NC1=NCCN1 [CLONIDINE] | -16% | -15% |  |  | -17% | -21% | 
6 | CC(C)=CCN=C(N)N [GALEGINE] | -27% | -27% | 31% | 70% | -33% | 32% | 
7 | N=C(N)NCCN1CCCCCCC1 [GUANETHIDINE] | -26% | -7% |  |  | -24% | -17% | 
8 | C[N+](C)(C)CCCCCC[N+](C)(C)C.[Cl-].[Cl-] [HEXAMETHONIUM CHLORIDE] | -42% | -13% |  |  | -43% |  | -69%
9 | NCCc1c[nH]cn1 [HISTAMINE] | -25% | -3% |  |  | -26% |  | -16%
10 | COc1ccc(Cc2nccc3cc(OC)c(OC)cc23)cc1OC [PAPAVERINE] | -18% | -5% |  |  | -16% |  | -19%
11 | COC(=O)[C@H]1[C@H]2C[C@@H]3c4[nH]c5cc(OC)ccc5c4CCN3C[C@H]2C[C@@H](OC(=O)c2cc(OC)c(OC)c(OC)c2)[C@@H]1OC [RESERPINE] | -31% | -15% |  |  | -32% |  | -22%
